In patent publication US20260092061A1, “COMPOUNDS FOR TARGETED PROTEIN DEGRADATION” (Amphista Therapeutics Limited, priority 2022, published 2026):

Assays:
BRD9 [1] = biological target: T1, BRD9 (Homo sapiens, UniProt Q9H8M2); assay: BRD9 degradation, HiBiT-BRD9 KI HEK293 (LgBiT) cells, NanoGlo Lytic Endpoint assay (Assay Protocol 1); format: cell-based; conditions: BRD9 degradation; for Dmax: read-out: Dmax
T1 sequence (Q9H8M2 1-597): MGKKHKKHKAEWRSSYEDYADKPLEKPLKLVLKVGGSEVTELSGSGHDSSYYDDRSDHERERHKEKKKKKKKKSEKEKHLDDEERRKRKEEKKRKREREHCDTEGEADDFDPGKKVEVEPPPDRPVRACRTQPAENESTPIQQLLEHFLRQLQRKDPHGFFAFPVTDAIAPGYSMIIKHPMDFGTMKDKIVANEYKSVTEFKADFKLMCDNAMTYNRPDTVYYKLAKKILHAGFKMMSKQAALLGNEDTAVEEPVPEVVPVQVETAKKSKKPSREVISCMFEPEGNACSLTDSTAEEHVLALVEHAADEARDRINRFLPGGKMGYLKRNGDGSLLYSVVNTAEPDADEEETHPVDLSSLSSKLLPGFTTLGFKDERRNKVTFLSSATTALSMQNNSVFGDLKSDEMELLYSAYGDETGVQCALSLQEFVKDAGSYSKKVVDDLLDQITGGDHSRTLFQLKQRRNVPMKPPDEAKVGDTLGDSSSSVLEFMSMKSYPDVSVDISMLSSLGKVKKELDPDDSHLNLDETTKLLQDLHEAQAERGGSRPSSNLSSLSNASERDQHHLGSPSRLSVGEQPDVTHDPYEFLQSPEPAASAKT
How it was run: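 HiBiT-tagged BRD9 knock-in HEK293 (LgBiT) cells exposed to compounds for 6 h at 37 °C, 5% CO2. Residual BRD9 measured by HiBiT lytic luminescence. % BRD9 remaining normalised to DMSO-treated cells (high) and no-cell wells (low).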

BRD9 [2] = biological target: T1, BRD9; assay: Degradation of BRD9 (IF), immunofluorescence in MV4-11 cells, 24 hours (Assay Protocol 2); format: cell-based; design: A suspension of MV4-11 cells (ATCC CRL-9591) was prepared; host or cells: MV4-11
How it was run: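 MV4-11 cells treated with compound 24 h at 37° C., then fixed, permeabilised and immunostained for BRD9 (anti-BRD9 E4Q3F, Alexa 647 secondary, Hoechst counterstain). High-content imaging quantified nuclear BRD9 signal; % BRD9 remaining normalised to DMSO and 100 nM CFT-8634 controls.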

[3] = Assay protocol 2, BRD9 degradation, read-out: DC50
[4] = MV4-11, Assay protocol 2, BRD9 degradation, read-out: Dmax
[5] = Assay protocol 1, read-out: DC50

Row | SMILES | Dmax at 1 µM (BRD9 [1]; HEK293, Table 2, Assay Protocol 1, 1 μM compound at 6 h of treatment, read-out: Assay 1 Dmax) | DC50 (BRD9 [1]; Table 2, Assay Protocol 1, 6 h of treatment, read-out: Assay 1 DC50) | Dmax (BRD9 [2]; MV4-11, 24 h, Table 2, BRD9 degradation (IF), Assay Protocol 2, MV4-11 cells, read-out: Assay 2 DCmax) | DC50 (BRD9 [2]; Table 2, BRD9 degradation (IF), Assay Protocol 2, MV4-11 cells, read-out: Assay 2 DC50) | Dmax (BRD9 [1]; HEK293, Assay protocol 1) | DC50 (BRD9 [2]; [3]) | Dmax (BRD9 [2]; [4]) | DC50 (BRD9 [1]; [5])
1 | COc1cc(-c2cn(C)c(=O)c3cc(C(=O)NCCCCCOc4cccc(C5CCCN5C(=O)/C(C#N)=C/c5nccs5)c4)sc23)cc(OC)c1CN(C)C (mixture of isomers) [Compound A76, (E/Z)—N-(5-(3-(1-(2-cyano-3-(thiazol-2-yl)acryloyl)pyrrolidin-2-yl)phenoxy)pentyl)-7-(4-((dimethylamino)methyl)-3,5-dimethoxyphenyl)-5-methyl-4-oxo-4,5-dihydrothieno[3,2-c]pyridine-2-carboxamide] | 40 to 70% | 25 to 300 nM | 70 to 75% | < 1.25 nM | – | – | – | –
2 | COc1cc(-c2cn(C)c(=O)c(C)c2C)cc(OC)c1CN1CC2CCC(C1)N2Cc1cccc2c1CCN(C(=O)/C(C#N)=C/C(C)(C)C)C2C (mixture of isomers) [Compound B3, (E/Z)-2-(5-((3-(2,6-dimethoxy-4-(1,4,5-trimethyl-6-oxo-1,6-dihydropyridin-3-yl)benzyl)-3,8-diazabicyclo[3.2.1]octan-8-yl)methyl)-1-methyl-1,2,3,4-tetrahydroisoquinoline-2-carbonyl)-4,4-dimethylpent-2-enenitrile] | – | – | – | – | > 75% | 10 to 25 nM | > 75% | 10 to 25 nM
3 | COc1cc(-c2cn(C)c(=O)c(C)c2C)cc(OC)c1CN(C)Cc1ccc2c(c1)C(C)N(C(=O)/C(C#N)=C/c1cccc(Br)n1)CC2 (mixture of isomers) [Compound B5, (E/Z)-3-(6-bromopyridin-2-yl)-2-(7-(((2,6-dimethoxy-4-(1,4,5-trimethyl-6-oxo-1,6-dihydropyridin-3-yl)benzyl)(methyl)amino)methyl)-1-methyl-1,2,3,4-tetrahydroisoquinoline-2-carbonyl)acrylonitrile] | – | – | – | – | > 75% | < 1.25 nM | > 75% | 1.25 to 10 nM
4 | COc1cc(-c2cn(C)c(=O)c(C)c2C)cc(OC)c1CN1CC2CC(C1)N2Cc1cccc2c1CCN(C(=O)/C(C#N)=C/c1cccc(Br)n1)C2C (mixture of isomers) [Compound B7, (E/Z)-3-(6-bromopyridin-2-yl)-2-(5-((3-(2,6-dimethoxy-4-(1,4,5-trimethyl-6-oxo-1,6-dihydropyridin-3-yl)benzyl)-3,6-diazabicyclo[3.1.1]heptan-6-yl)methyl)-1-methyl-1,2,3,4-tetrahydroisoquinoline-2-carbonyl)acrylonitrile] | – | – | – | – | 40 to 70% | < 1.25 nM | 40 to 70% | 1.25 to 10 nM
5 | COc1cc(-c2cn(C)c(=O)c(C)c2C)cc(OC)c1CN1CC2CC(C1)N2Cc1cccc(C2CCCN2C(=O)/C(C#N)=C/c2cccc(Br)n2)c1 (mixture of isomers) [Compound B12, (E/Z)-3-(6-bromopyridin-2-yl)-2-(2-(3-((3-(2,6-dimethoxy-4-(1,4,5-trimethyl-6-oxo-1,6-dihydropyridin-3-yl)benzyl)-3,6-diazabicyclo[3.1.1]heptan-6-yl)methyl)phenyl)pyrrolidine-1-carbonyl)acrylonitrile] | – | – | – | – | > 75% | 1.25 to 10 nM | > 75% | 10 to 25 nM
6 | COc1cc(-c2cn(C)c(=O)c(C)c2C)cc(OC)c1CN1C2CC1CN(Cc1cccc3c1CCN(C(=O)/C(C#N)=C/C(C)(C)C)C3C)C2 (mixture of isomers) [Compound B13, (E/Z)-2-(5-((6-(2,6-dimethoxy-4-(1,4,5-trimethyl-6-oxo-1,6-dihydropyridin-3-yl)benzyl)-3,6-diazabicyclo[3.1.1]heptan-3-yl)methyl)-1-methyl-1,2,3,4-tetrahydroisoquinoline-2-carbonyl)-4,4-dimethylpent-2-enenitrile] | – | – | – | – | > 75% | 1.25 to 10 nM | 40 to 70% | 10 to 25 nM

Other lines, results leading:

Row | Dmax at 1 µM (BRD9 [1]; HEK293, Table 2, Assay Protocol 1, 1 μM compound at 6 h of treatment, read-out: Assay 1 Dmax) | DC50 (BRD9 [1]; Table 2, Assay Protocol 1, 6 h of treatment, read-out: Assay 1 DC50) | Dmax (BRD9 [2]; MV4-11, 24 h, Table 2, BRD9 degradation (IF), Assay Protocol 2, MV4-11 cells, read-out: Assay 2 DCmax) | DC50 (BRD9 [2]; Table 2, BRD9 degradation (IF), Assay Protocol 2, MV4-11 cells, read-out: Assay 2 DC50) | Dmax (BRD9 [1]; HEK293, Assay protocol 1) | DC50 (BRD9 [2]; [3]) | Dmax (BRD9 [2]; [4]) | DC50 (BRD9 [1]; [5]) | SMILES
7 | – | – | – | – | 40 to 70% | < 1.25 nM | 40 to 70% | – | COc1cc(-c2cn(C)c(=O)c(C)c2C)cc(OC)c1CN1CCN(Cc2cccc3c2CCN(C(=O)/C(C#N)=C/C2CC(F)(F)C2)C3C)CC1 (mixture of isomers) [Compound B1, (E/Z)-3-(3,3-difluorocyclobutyl)-2-(5-((4-(2,6-dimethoxy-4-(1,4,5-trimethyl-6-oxo-1,6-dihydropyridin-3-yl)benzyl)piperazin-1-yl)methyl)-1-methyl-1,2,3,4-tetrahydroisoquinoline-2-carbonyl)acrylonitrile]
8 | – | – | – | – | > 75% | 1.25 to 10 nM | 70 to 75% | 1.25 to 10 nM | COc1cc(-c2cn(C)c(=O)c(C)c2C)cc(OC)c1CN1CCCN(Cc2cccc3c2CCN(C(=O)/C(C#N)=C/c2cccc(Br)n2)C3C)CC1 (mixture of isomers) [Compound B2, (E/Z)-3-(6-bromopyridin-2-yl)-2-(5-((4-(2,6-dimethoxy-4-(1,4,5-trimethyl-6-oxo-1,6-dihydropyridin-3-yl)benzyl)-1,4-diazepan-1-yl)methyl)-1-methyl-1,2,3,4-tetrahydroisoquinoline-2-carbonyl)acrylonitrile]
9 | – | – | – | – | 40 to 70% | 1.25 to 10 nM | 40 to 70% | 1.25 to 10 nM | COc1cc(-c2cn(C)c(=O)c(C)c2C)cc(OC)c1CN1CCN(Cc2cccc3c2CCN(C(=O)/C(C#N)=C/c2cc(C)on2)C3C)CC1 (mixture of isomers) [Compound B4, (E/Z)-2-(5-((4-(2,6-dimethoxy-4-(1,4,5-trimethyl-6-oxo-1,6-dihydropyridin-3-yl)benzyl)piperazin-1-yl)methyl)-1-methyl-1,2,3,4-tetrahydroisoquinoline-2-carbonyl)-3-(5-methylisoxazol-3-yl)acrylonitrile]
10 | – | – | – | – | > 75% | < 1.25 nM | > 75% | < 1.25 nM | COc1cc(-c2cn(C)c(=O)c(C)c2C)cc(OC)c1CN1CCN(Cc2cccc3c2CCN(C(=O)/C(C#N)=C/c2ccnc(C)n2)C3C)CC1 (mixture of isomers) [Compound B9, (E/Z)-2-(5-((4-(2,6-dimethoxy-4-(1,4,5-trimethyl-6-oxo-1,6-dihydropyridin-3-yl)benzyl)piperazin-1-yl)methyl)-1-methyl-1,2,3,4-tetrahydroisoquinoline-2-carbonyl)-3-(2-methylpyrimidin-4-yl)acrylonitrile]
11 | – | – | – | – | 70 to 75% | – | 40 to 70% | 1.25 to 10 nM | COc1cc(-c2cn(C)c(=O)c(C)c2C)cc(OC)c1CN1CCN(Cc2cccc3c2CCN(C(=O)/C(C#N)=C/c2ncc(C(F)(F)F)s2)C3C)CC1 (mixture of isomers) [Compound B10, (E/Z)-2-(5-((4-(2,6-dimethoxy-4-(1,4,5-trimethyl-6-oxo-1,6-dihydropyridin-3-yl)benzyl)piperazin-1-yl)methyl)-1-methyl-1,2,3,4-tetrahydroisoquinoline-2-carbonyl)-3-(5-(trifluoromethyl)thiazol-2-yl)acrylonitrile]
12 | – | – | – | – | > 75% | < 1.25 nM | > 75% | < 1.25 nM | COc1cc(-c2cn(C)c(=O)c(C)c2C)cc(OC)c1CN1CCN(Cc2cccc3c2CCN(C(=O)/C(C#N)=C/c2nc(C(F)(F)F)cs2)C3C)CC1 (mixture of isomers) [Compound B11, (E/Z)-2-(5-((4-(2,6-dimethoxy-4-(1,4,5-trimethyl-6-oxo-1,6-dihydropyridin-3-yl)benzyl)piperazin-1-yl)methyl)-1-methyl-1,2,3,4-tetrahydroisoquinoline-2-carbonyl)-3-(4-(trifluoromethyl)thiazol-2-yl)acrylonitrile]
13 | – | – | – | – | > 75% | 1.25 to 10 nM | > 75% | 1.25 to 10 nM | COc1cc(-c2cn(C)c(=O)c(C)c2C)cc(OC)c1CN(C)Cc1cccc2c1CCN(C(=O)/C(C#N)=C/c1cccc(Br)n1)C2C (mixture of isomers) [Compound B14, (E/Z)-3-(6-bromopyridin-2-yl)-2-(5-(((2,6-dimethoxy-4-(1,4,5-trimethyl-6-oxo-1,6-dihydropyridin-3-yl)benzyl)(methyl)amino)methyl)-1-methyl-1,2,3,4-tetrahydroisoquinoline-2-carbonyl)acrylonitrile]
